Like-named read-outs stand apart in the source and are kept apart here.
How the values were obtained:
B2-AR = biological target: T1, B2-AR (Homo sapiens, UniProt P07550); test: cAMP Gs dynamic HTRF assay, cells expressing beta-adrenergic receptor (CHO-K1), B2-AR; format: cell-based; conditions: for Emax: read-out: Emax (% iso) (%) [B2-AR]; for EC50: read-out: pEC50 [B2-AR] (converted)
T1 construct: expressed in transfected cells; host or cells: CHO-K1

B1-AR = biological target: T2, B1-AR (Homo sapiens, UniProt P08588); test: cAMP Gs dynamic HTRF assay, cells expressing beta-adrenergic receptor (CHO-K1), B1-AR; format: cell-based; conditions: for EC50: read-out: pEC50 [B1-AR] (converted); for Emax: read-out: Emax (% iso) (%) [B1-AR]
T2 construct: expressed in transfected cells; host or cells: CHO-K1

[1] = CHO-K1, CHO-K1 cells, relative to full agonist isoproterenol
[2] = relative to full agonist isoproterenol
[3] = CHO-K1 cells, relative to full agonist isoproterenol

T2 sequence (P08588 whole entry, species assumed): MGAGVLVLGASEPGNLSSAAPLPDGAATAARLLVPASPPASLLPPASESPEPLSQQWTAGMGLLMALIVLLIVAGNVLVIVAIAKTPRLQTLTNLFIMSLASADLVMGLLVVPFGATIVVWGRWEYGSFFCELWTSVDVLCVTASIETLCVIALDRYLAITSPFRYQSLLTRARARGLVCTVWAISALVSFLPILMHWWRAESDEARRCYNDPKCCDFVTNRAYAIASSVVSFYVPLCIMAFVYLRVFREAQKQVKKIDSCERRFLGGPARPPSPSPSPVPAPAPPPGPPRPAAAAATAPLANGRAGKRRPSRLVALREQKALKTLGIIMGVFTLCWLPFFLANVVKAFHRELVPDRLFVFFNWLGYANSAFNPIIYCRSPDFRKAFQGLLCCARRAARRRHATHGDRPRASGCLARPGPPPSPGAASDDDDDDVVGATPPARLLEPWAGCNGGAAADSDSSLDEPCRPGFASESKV
T1 sequence (P07550 whole entry, species assumed): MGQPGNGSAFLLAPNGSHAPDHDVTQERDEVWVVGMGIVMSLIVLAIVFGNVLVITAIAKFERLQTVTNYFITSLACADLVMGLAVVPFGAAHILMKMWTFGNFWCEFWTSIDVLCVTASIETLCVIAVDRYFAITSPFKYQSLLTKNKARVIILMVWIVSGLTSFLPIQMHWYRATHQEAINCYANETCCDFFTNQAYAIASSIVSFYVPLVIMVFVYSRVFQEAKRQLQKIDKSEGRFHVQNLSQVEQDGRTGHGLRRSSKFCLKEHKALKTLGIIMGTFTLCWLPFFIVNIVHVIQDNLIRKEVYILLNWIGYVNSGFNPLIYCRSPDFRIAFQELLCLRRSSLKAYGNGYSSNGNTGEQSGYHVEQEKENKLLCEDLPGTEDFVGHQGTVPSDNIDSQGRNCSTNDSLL

SMILES | Emax (B2-AR; [1]) | EC50 (B2-AR; CHO-K1 cells, cAMP HTRF) | EC50 (B1-AR; cAMP HTRF) | Emax (B1-AR; [2]) | Emax (B2-AR; [3]) | pEC50 [B2-AR] (B2-AR; CHO-K1 cells, cAMP HTRF) | Emax (% iso) (%) [B2-AR] (B2-AR; [3]) | pEC50 [B1-AR] (B1-AR; cAMP HTRF) | Emax (% iso) (%) [B1-AR] (B1-AR; [2])
Cc1ncccc1[C@@H](O)CNC1CCC1 [I-187] | 70 to 90% | 0.1 to 1 µM | > 1 µM | 70 to 90% | – | – | – | – | –
O[C@@H](CNC1CC1)c1cccc2[nH]ncc12 [I-134] | – | < 0.01 µM | < 0.01 µM | 70 to 90% | > 90% | – | – | – | –
CC(C)CNC[C@H](O)c1ccc2[nH]cc(F)c2c1 [I-124] | > 90% | 0.1 to 1 µM | > 1 µM | 70 to 90% | – | – | – | – | –
Cn1ncc2c([C@@H](O)CNC(C)(C)C)cc(F)cc21 [I-84] | – | – | – | – | – | A (A=>8) | B (B=>70-90%) | B (B=>7-8) | B (B=>70-90%)
CC1(NC[C@H](O)c2ccc(Cl)c3[nH]ncc23)CCC1 [I-118] | 70 to 90% | < 0.01 µM | < 0.01 µM | 70 to 90% | – | – | – | – | –
CCC(C)(C)NC[C@H](O)c1cccc2[nH]cc(F)c12 [I-46] | > 90% | < 0.01 µM | < 0.01 µM | > 90% | – | – | – | – | –
O[C@@H](CNC1CCC1)c1cncc2[nH]ncc12 [I-158] | – | 0.1 to 1 µM | 0.1 to 1 µM | > 90% | > 90% | – | – | – | –
CC1(NC[C@H](O)c2cccc3[nH]ncc23)CC1 [I-129] | – | < 0.01 µM | < 0.01 µM | > 90% | > 90% | – | – | – | –
CC(C)(C)CNC[C@H](O)c1cccc2[nH]nc(F)c12 [I-90] | > 90% | 0.01 to 0.1 µM | 0.1 to 1 µM | 70 to 90% | – | – | – | – | –
Cn1ccc(CNC[C@H](O)c2cccc3[nH]ncc23)n1 [I-64] | – | 0.1 to 1 µM | 0.1 to 1 µM | 70 to 90% | > 90% | – | – | – | –
C[C@H](NC[C@H](O)c1cccc2[nH]ncc12)C(C)(C)C [I-6] | > 90% | < 0.01 µM | 0.1 to 1 µM | 70 to 90% | – | – | – | – | –
CC(C)[C@H](C)NC[C@H](O)c1ccc(F)c2[nH]ncc12 [I-36] | > 90% | < 0.01 µM | < 0.01 µM | 70 to 90% | – | – | – | – | –
Cc1cc2ncccc2cc1[C@@H](O)CNC(C)(C)C [I-79] | – | 0.1 to 1 µM | > 1 µM | > 90% | < 50% | – | – | – | –
Cc1nc(N)c(Cl)cc1[C@@H](O)CNC(CO)CO [I-145] | – | > 1 µM | > 1 µM | 70 to 90% | 70 to 90% | – | – | – | –
CCc1cc([C@@H](O)CNC(C)(C)C)c2cn[nH]c2c1 [I-105] | < 50% | 0.1 to 1 µM | > 1 µM | < 50% | – | – | – | – | –
CC(C)C(C)(C)NC[C@H](O)c1cc(F)cc2[nH]ncc12 [I-32] | – | < 0.01 µM | 0.01 to 0.1 µM | > 90% | > 90% | – | – | – | –
CC(C)(CO)NC[C@H](O)c1ccc(Cl)c2[nH]ncc12 [I-116] | 70 to 90% | < 0.01 µM | 0.01 to 0.1 µM | 70 to 90% | – | – | – | – | –
CC(C)(C)NC[C@H](O)c1ccc2nccnc2c1 [I-83] | – | 0.01 to 0.1 µM | 0.01 to 0.1 µM | 70 to 90% | 50 to 70% | – | – | – | –
C[C@H](NC[C@H](O)c1cc(C#N)cc2[nH]ncc12)C(C)(C)C [I-5] | 70 to 90% | 0.1 to 1 µM | > 1 µM | 50 to 70% | – | – | – | – | –
CC(C)[C@@H](C)NC[C@H](O)c1cccc2[nH]ncc12 [I-33] | – | < 0.01 µM | < 0.01 µM | 70 to 90% | > 90% | – | – | – | –
CC(C)(C)NC[C@H](O)c1cccc2[nH]c(=O)sc12 [I-147] | – | < 0.01 µM | < 0.01 µM | 70 to 90% | > 90% | – | – | – | –
CC(C)(NC[C@H](O)c1cccc2[nH]ncc12)C1CC1 [I-12] | – | < 0.01 µM | < 0.01 µM | > 90% | > 90% | – | – | – | –
Cc1n[nH]c2cccc([C@@H](O)CNC3CC3)c12 [I-167] | 70 to 90% | 0.1 to 1 µM | > 1 µM | 70 to 90% | – | – | – | – | –
O[C@@H](CNC1CCC1)c1ccc(F)c2[nH]ncc12 [I-137] | – | < 0.01 µM | < 0.01 µM | 70 to 90% | > 90% | – | – | – | –
O[C@@H](CNC1CC1)c1cccc2[nH]nc(F)c12 [I-140] | – | < 0.01 µM | < 0.01 µM | > 90% | > 90% | – | – | – | –
Cn1c(=O)[nH]c2cccc([C@@H](O)CNC(C)(C)C)c21 [I-93] | – | > 1 µM | > 1 µM | 70 to 90% | > 90% | – | – | – | –
CCC(C)(C)NC[C@H](O)c1cc(C#N)cc2[nH]ncc12 [I-52] | > 90% | 0.01 to 0.1 µM | 0.1 to 1 µM | 70 to 90% | – | – | – | – | –
CC(C)NC[C@H](O)c1cncc2[nH]ncc12 [I-159] | – | 0.1 to 1 µM | 0.1 to 1 µM | 70 to 90% | > 90% | – | – | – | –
CC1(NC[C@H](O)c2cccc3[nH]cc(F)c23)CC1 [I-107] | > 90% | < 0.01 µM | < 0.01 µM | > 90% | – | – | – | – | –

Source: patent US20240270701A1, “BETA ADRENERGIC AGONIST AND METHODS OF USING THE SAME” (Curasen Therapeutics, Inc., priority 2021, published 2024)
